Measured values reported in PMC10481364 (The Journal of Biological Chemistry, 2023).
Values joined by “and” are separate entries in the source; they are usually repeats but may differ in a detail not shown here. Equal entries are not always repeated. “Also recorded” adds a separate entry of the source.

Assays:
CYP17A1 = target: T1, CYP17A1 (Homo sapiens, UniProt P05093); experiment: UV-visible spectral ligand binding assay, isolated CYP17A1; conditions: difference spectra
T1 sequence (P05093 with tags, fused parts or gaps): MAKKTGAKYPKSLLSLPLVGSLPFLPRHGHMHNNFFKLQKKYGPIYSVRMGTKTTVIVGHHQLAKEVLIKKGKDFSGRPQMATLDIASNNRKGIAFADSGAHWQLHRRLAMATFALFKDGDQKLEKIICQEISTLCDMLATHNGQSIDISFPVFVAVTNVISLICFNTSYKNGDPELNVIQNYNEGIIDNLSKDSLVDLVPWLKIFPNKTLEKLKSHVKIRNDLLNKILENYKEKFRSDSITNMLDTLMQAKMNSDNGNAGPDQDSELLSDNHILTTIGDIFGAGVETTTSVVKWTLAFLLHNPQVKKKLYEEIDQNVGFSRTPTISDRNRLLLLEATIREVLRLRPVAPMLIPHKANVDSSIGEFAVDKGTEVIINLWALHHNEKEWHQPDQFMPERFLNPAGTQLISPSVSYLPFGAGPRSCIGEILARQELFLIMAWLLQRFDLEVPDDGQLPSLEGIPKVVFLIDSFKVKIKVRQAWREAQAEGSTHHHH

FMND/CYP17A1 [1] = target: T2, FMND/CYP17A1 (Homo sapiens, UniProt P05093+P16435); format: binding; conditions: for spectral shift (binding mode): difference spectra, FMND/CYP17A1 fusion, FMN domain oxidized
T2 sequence (P16435+P05093 with tags, fused parts or gaps): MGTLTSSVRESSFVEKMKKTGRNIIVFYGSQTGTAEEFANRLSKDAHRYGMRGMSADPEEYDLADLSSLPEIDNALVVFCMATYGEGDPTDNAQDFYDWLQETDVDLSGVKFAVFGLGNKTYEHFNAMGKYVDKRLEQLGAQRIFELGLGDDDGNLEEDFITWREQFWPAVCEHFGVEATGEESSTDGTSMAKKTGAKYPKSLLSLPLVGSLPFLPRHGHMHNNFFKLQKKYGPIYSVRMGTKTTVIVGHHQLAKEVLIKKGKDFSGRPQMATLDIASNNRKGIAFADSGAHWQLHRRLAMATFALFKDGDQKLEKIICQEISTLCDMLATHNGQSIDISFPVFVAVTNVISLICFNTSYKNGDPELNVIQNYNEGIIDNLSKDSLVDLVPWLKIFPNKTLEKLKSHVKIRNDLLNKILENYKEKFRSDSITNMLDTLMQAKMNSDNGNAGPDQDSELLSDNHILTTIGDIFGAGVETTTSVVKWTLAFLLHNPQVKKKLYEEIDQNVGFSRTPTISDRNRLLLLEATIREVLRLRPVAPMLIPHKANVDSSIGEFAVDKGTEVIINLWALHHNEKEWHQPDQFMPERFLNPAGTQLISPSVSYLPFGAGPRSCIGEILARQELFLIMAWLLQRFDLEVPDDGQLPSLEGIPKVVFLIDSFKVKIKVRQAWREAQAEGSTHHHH

FMND/CYP3A4 [2] = target: T3, FMND/CYP3A4 (Homo sapiens, UniProt P08684); conditions: FMND/CYP3A4 compared with CYP3A4
CYP2A6 = target: T4, CYP2A6 (Homo sapiens, UniProt P11509); experiment: UV-visible spectral ligand binding assay, isolated CYP2A6; conditions: difference spectra
T4 sequence (P11509 with tags, fused parts or gaps): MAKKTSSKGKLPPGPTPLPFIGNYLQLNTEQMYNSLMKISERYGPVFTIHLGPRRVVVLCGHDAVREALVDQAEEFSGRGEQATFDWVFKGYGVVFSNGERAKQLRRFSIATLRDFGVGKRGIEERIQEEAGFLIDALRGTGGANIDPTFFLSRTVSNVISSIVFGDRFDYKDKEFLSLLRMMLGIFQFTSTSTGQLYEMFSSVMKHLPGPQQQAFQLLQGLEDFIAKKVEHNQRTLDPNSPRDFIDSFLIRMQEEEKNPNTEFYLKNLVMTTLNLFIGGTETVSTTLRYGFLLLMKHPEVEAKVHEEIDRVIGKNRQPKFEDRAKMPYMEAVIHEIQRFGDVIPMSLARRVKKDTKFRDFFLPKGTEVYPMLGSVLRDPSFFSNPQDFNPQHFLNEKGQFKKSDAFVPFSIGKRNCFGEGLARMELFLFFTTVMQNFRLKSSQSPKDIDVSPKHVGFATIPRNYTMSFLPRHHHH

FMND/CYP2A6 [3] = target: T5, FMND/CYP2A6 (Homo sapiens, UniProt P11509); format: binding; conditions: for spectral shift (binding mode): difference spectra, FMND/CYP2A6 fusion, FMN domain oxidized
T5 sequence (P11509 with tags, fused parts or gaps): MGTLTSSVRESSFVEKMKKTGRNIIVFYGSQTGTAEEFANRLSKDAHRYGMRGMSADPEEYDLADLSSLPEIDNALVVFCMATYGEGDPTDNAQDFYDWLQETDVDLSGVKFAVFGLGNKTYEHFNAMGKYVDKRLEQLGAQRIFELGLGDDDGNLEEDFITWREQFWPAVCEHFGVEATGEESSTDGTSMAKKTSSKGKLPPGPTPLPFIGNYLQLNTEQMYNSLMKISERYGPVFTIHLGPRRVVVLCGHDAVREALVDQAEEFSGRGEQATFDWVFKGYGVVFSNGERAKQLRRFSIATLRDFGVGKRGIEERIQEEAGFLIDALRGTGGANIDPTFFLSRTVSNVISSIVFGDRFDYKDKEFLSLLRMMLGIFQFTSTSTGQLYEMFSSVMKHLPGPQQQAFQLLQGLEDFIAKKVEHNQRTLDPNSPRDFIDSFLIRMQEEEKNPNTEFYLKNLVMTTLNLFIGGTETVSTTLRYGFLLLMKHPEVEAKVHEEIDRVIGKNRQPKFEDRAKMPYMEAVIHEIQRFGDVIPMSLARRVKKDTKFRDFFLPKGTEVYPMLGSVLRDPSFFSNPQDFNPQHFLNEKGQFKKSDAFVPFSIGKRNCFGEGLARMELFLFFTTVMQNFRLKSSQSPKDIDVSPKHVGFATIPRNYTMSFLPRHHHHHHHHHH

FMND/CYP2A6 [4] = target: T5, FMND/CYP2A6; format: biochemical; conditions: coumarin metabolism to 7-hydroxycoumarin, cumene hydroperoxide, FMND/CYP2A6 vs CYP2A6
FMND/CYP3A4 [5] = target: T3, FMND/CYP3A4; format: biochemical; conditions: hydrocortisone metabolism to 6β-hydroxycortisol, cumene hydroperoxide, FMND/CYP3A4 vs CYP3A4
FMND/CYP21A2 [6] = target: T6, FMND/CYP21A2 (Homo sapiens, UniProt P08686+P16435, R103K); format: binding
T6 sequence (P16435+P08686 with tags, fused parts or gaps P08686:R103K): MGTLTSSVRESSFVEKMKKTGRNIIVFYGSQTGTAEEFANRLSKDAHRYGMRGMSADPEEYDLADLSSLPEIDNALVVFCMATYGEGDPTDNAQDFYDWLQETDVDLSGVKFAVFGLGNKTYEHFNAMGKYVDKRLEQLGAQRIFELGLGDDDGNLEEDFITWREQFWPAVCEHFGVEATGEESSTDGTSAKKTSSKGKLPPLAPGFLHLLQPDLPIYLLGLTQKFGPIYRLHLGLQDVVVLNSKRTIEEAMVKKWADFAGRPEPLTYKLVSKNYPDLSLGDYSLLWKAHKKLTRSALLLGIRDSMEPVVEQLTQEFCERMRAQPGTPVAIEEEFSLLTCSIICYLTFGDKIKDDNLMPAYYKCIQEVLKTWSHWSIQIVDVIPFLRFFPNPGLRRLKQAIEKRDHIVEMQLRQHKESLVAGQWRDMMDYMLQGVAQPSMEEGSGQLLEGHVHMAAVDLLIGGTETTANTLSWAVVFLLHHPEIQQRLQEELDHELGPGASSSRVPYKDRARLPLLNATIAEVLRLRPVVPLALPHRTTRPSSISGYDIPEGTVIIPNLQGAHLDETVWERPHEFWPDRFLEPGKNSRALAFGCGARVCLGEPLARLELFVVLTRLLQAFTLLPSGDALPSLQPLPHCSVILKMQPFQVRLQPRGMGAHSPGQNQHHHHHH

FMND/CYP2D6 = format: binding, human
CYP2D6 = CYP2D6 (Homo sapiens, UniProt P10635); experiment: UV-visible spectral ligand binding assay, isolated CYP2D6; conditions: difference spectra
CYP21A2 = target: T7, CYP21A2 (Homo sapiens, UniProt P08686, R103K); experiment: UV-visible spectral ligand binding assay, isolated CYP21A2; conditions: difference spectra
T7 sequence (P08686 with tags, fused parts or gaps R103K limits assumed): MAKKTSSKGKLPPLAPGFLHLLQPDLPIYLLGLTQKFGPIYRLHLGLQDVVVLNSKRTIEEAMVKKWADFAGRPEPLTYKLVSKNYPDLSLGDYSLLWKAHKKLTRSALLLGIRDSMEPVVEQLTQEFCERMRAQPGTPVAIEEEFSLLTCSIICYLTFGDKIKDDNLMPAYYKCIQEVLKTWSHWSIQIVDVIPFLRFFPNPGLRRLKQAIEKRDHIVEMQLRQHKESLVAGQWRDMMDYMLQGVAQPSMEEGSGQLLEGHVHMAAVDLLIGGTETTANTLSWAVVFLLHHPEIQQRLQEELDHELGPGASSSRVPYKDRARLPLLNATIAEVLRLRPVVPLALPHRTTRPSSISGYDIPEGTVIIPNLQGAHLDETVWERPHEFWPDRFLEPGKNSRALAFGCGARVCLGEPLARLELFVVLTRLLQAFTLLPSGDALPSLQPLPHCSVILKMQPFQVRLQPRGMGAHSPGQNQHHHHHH

FMND/CYP21A2 [7] = target: T6, FMND/CYP21A2; format: biochemical; conditions: progesterone 21-hydroxylation, cumene hydroperoxide, FMND/CYP21A2 vs CYP21A2
FMND/CYP17A1 [8] = target: T2, FMND/CYP17A1; format: biochemical; conditions: progesterone 17α-hydroxylation, cumene hydroperoxide
[9] = FMND/CYP17A1 compared with CYP17A1
[10] = FMND/CYP2A6 compared with CYP2A6
[11] = FMND/CYP21A2 compared with CYP21A2
[12] = FMND/CYP2D6 compared with CYP2D6

## CC(=O)[C@@]1(O)CC[C@H]2[C@@H]3CC=C4C[C@@H](O)CC[C@]4(C)[C@H]3CC[C@@]21C [17α-hydroxypregnenolone]
CYP17A1
  spectral shift (binding mode): type I
FMND/CYP17A1 [1]; [9]
  decrease in Kd by FMN domain fusion: 12%
  effect of FMN domain fusion on saturation (ΔAmax), in words: little effect
  increase in overall binding efficiency (ΔAmax/Kd) by FMN domain fusion: 16%
FMND/CYP17A1 [1]
  spectral shift (binding mode): type I

## Clc1ccccc1C(c1ccccc1)(c1ccccc1)n1ccnc1 [clotrimazole]
FMND/CYP3A4 [2]
  reduction in the Kd value by FMND fusion: 49%
  reduction in total binding / final saturation (ΔAmax) by FMND fusion: 58%

## O=c1ccc2ccccc2o1 [coumarin]
CYP2A6
  spectral shift (binding mode): type I
FMND/CYP2A6 [3]; [10]
  change in total ligand binding by FMN domain fusion, in words: relatively little change
  increase in the Kd value by FMN domain fusion: more than 2 fold
FMND/CYP2A6 [3]
  spectral shift (binding mode): type I
FMND/CYP2A6 [4]
  effect on Km, in words: little effect
  effect on catalytic efficiency, in words: decreased

## C[C@]12CCC(=O)C=C1CC[C@@H]1[C@@H]2[C@@H](O)C[C@@]2(C)[C@H]1CC[C@]2(O)C(=O)CO [hydrocortisone]
FMND/CYP3A4 [5]
  decrease in Km by addition of the FMN domain: ~30%
  decrease in kcat by addition of the FMN domain: ~21%
FMND/CYP3A4 [2]
  reduction in the Kd value by FMND fusion: 30%
  reduction in total binding / final saturation (ΔAmax) by FMND fusion: 33%

## CC(=O)N1CCN(c2ccc(OCC3COC(Cn4ccnc4)(c4ccc(Cl)cc4Cl)O3)cc2)CC1 (stereo not drawn) [ketoconazole]
FMND/CYP17A1 [1]; [9]
  effect of FMN domain fusion on saturation (ΔAmax), in words: no significant changes; also recorded: essentially no effect
FMND/CYP21A2 [6]; [11]
  decrease in total / maximal absorbance change (ΔAmax) by FMN domain fusion: ~30%
  increase in the dissociation constant by FMN domain fusion: 31%

## CC[C@@H]1C(=O)OC[C@@H]1Cc1cncn1C [pilocarpine]
FMND/CYP2D6; [12]
  increase in affinity by FMN domain fusion: 37%
  increase in ΔAmax/Kd binding efficiency by FMN domain fusion: 32%
  reduction in total binding at saturation by FMN domain fusion: 17%
CYP2A6
  spectral shift (binding mode): type II
FMND/CYP2A6 [3]; [10]
  change in the affinity by FMN domain fusion, in words: no change
  decrease in total binding (ΔAmax) by FMN domain fusion: 30%
FMND/CYP2A6 [3]
  spectral shift (binding mode): type II

## CC(=O)[C@H]1CC[C@H]2[C@@H]3CC=C4C[C@@H](O)CC[C@]4(C)[C@H]3CC[C@]12C [pregnenolone]
CYP17A1
  spectral shift (binding mode): type I
FMND/CYP17A1 [1]; [9]
  effect of FMN domain fusion on binding efficiency, in words: largely unchanged
  effect of FMN domain fusion on saturation (ΔAmax), in words: increased
FMND/CYP17A1 [1]
  spectral shift (binding mode): type I

## CC1(C)SCCN(S(=O)(=O)c2ccc(Oc3ccncc3)cc2)[C@H]1C(=O)NO [prinomastat]
CYP2D6
  spectral shift (binding mode): type II
FMND/CYP2D6; difference spectra, FMND/CYP2D6 fusion, FMN domain oxidized
  spectral shift (binding mode): type II

## CC(=O)[C@H]1CC[C@H]2[C@@H]3CCC4=CC(=O)CC[C@]4(C)[C@H]3CC[C@]12C [progesterone]
CYP17A1
  spectral shift (binding mode): type I
FMND/CYP17A1 [1]; [9]
  increase in affinity by FMN domain fusion: 17%
  increase in overall binding efficiency (ΔAmax/Kd) by FMN domain fusion: 38%
FMND/CYP17A1 [1]
  spectral shift (binding mode): type I
CYP21A2
  spectral shift (binding mode): type I
FMND/CYP21A2 [6]; [11]
  decrease in total / maximal absorbance change (ΔAmax) by FMN domain fusion: 31% and 30%
  effect of FMN domain fusion on the affinity, in words: without substantially altering
FMND/CYP21A2 [6]; difference spectra, FMND/CYP21A2 fusion, FMN domain oxidized
  spectral shift (binding mode): type I
FMND/CYP21A2 [7]
  effect on catalytic efficiency, in words: unchanged
  increase in kcat by FMN domain fusion: 17%
FMND/CYP17A1 [8]; CYP17A1 and FMND/CYP17A1
  steady-state kinetics, saturation: saturation could not be reached
FMND/CYP17A1 [8]; FMND/CYP17A1 vs CYP17A1, poorly defined
  trend of the FMN domain effect on kcat and Km, in words: increase kcat as well as Km
